Among the data in PubChem BioAssay AID1918945 (Molecular Pharmacology Branch, DTP, NCI, 2023) are IC50 and viability, T/C values, retold here.

For the assay, the system named is 883617-216-R-J1-PDC complex spheroid viability. As to the kind of experiment: Anticancer human tumor 883617-216-R-J1-PDC patient-derived bladder carcinoma cell line growth inhibition. To be noted: for viability, T/C: stronger effect = lower value. The gist of the method: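 Complex spheroids of tumor cells with HUVEC and human MSCs, exposed to iadademstat combined with other agents. Each agent tested in half-log steps from near clinical Cmax (else 10 microM top), DMSO ≤0.25%.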

Where [1] appears, read: curve of first compound, second compound 0.1 µM.
The mark [2] stands for this setting: curve of first compound, second compound 0.316 µM.
The mark [3] stands for this setting: curve of first compound, second compound 1 µM.
Where [4] appears, read: curve of first compound, second compound 3.16 µM.
[5] abbreviates: curve of first compound, second compound 10 µM.
Setting [6] is: second compound 0.1 µM, first compound 0.0316 µM.
[7] abbreviates: second compound 0.1 µM, first compound 0.1 µM.
Where [8] appears, read: second compound 0.316 µM, first compound 0.0316 µM.
[9] abbreviates: second compound 0.316 µM, first compound 0.1 µM.
Setting [10] is: second compound 1 µM, first compound 0.0316 µM.
The mark [11] stands for this setting: second compound 1 µM, first compound 0.1 µM.
The mark [12] stands for this setting: second compound 3.16 µM, first compound 0.0316 µM.
Setting [13] is: second compound 3.16 µM, first compound 0.1 µM.
[14] abbreviates: second compound 10 µM, first compound 0.0316 µM.
The mark [15] stands for this setting: second compound 10 µM, first compound 0.1 µM.

“And” between values parts separate entries of the source, which are not always exact repeats. Equal entries are not always repeated.
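Note: exposure lasted seven days after three days of spheroid growth.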
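Throughout, for viability, T/C: 100% = DMSO vehicle control luminescence.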

Usually IC50 stands for the concentration needed to halve the response being measured. The viability, T/C is the result in the treated group divided by that in the control group, in per cent. Turning to `CC[C@@]1(O)C(=O)OCc2c1cc1n(c2=O)Cc2cc3c(CN(C)C)c(O)ccc3nc2-1` + NC1CCC(NC2CC2c2ccccc2)CC1, the IC50 is 4.71 nM under setting [1]; 5.7 nM under setting [2]; 6.31 nM under setting [3]; 6.47 nM under setting [4]; 7.25 nM under setting [5]. The viability, T/C by setting is: (second compound 0.1 µM, first compound 0.000316 µM) 94.9%; (second compound 0.1 µM, first compound 0.001 µM) 85.8%; (second compound 0.1 µM, first compound 0.00316 µM) 55.2%; (second compound 0.1 µM, first compound 0.01 µM) 38.9%; under setting [6], 33.8%; under setting [7], 28.5%. Also, the viability, T/C reads like this: (second compound 0.316 µM, first compound 0.000316 µM) 103%; (second compound 0.316 µM, first compound 0.001 µM) 104%; (second compound 0.316 µM, first compound 0.00316 µM) 62.5%; (second compound 0.316 µM, first compound 0.01 µM) 42.6%; under setting [8], 30.9%; under setting [9], 32.4%. Besides, the viability, T/C is 93.7% (second compound 1 µM, first compound 0.000316 µM); 87.2% (second compound 1 µM, first compound 0.001 µM); 57.4% (second compound 1 µM, first compound 0.00316 µM); 44.2% (second compound 1 µM, first compound 0.01 µM); 36.2% under setting [10]; 26.9% under setting [11]. For the same compound, the viability, T/C by setting is: (second compound 3.16 µM, first compound 0.000316 µM) 95.8%; (second compound 3.16 µM, first compound 0.001 µM) 86.1%; (second compound 3.16 µM, first compound 0.00316 µM) 61.3%; (second compound 3.16 µM, first compound 0.01 µM) 42.5%; under setting [12], 35.4%; under setting [13], 28.8%. The viability, T/C was 99.3% (second compound 10 µM, first compound 0.000316 µM); 98.2% (second compound 10 µM, first compound 0.001 µM); 74.7% (second compound 10 µM, first compound 0.00316 µM); 40% (second compound 10 µM, first compound 0.01 µM); 36.7% under setting [14]; 28.6% under setting [15].

In the case of `Nc1ccccc1NC(=O)c1ccc(CNC(=O)OCc2cccnc2)cc1` + NC1CCC(NC2CC2c2ccccc2)CC1, the IC50 was found to be 206 nM under setting [1]; 205 nM under setting [2]; 233 nM under setting [3]; 216 nM under setting [4]; 235 nM under setting [5]. Besides, the viability, T/C was 115% (second compound 0.1 µM, first compound 0.00949 µM); 89.3% (second compound 0.1 µM, first compound 0.03 µM); 73.5% (second compound 0.1 µM, first compound 0.0949 µM); 39.5% (second compound 0.1 µM, first compound 0.3 µM); 15.8% (second compound 0.1 µM, first compound 0.949 µM); 0.37% (second compound 0.1 µM, first compound 3 µM). Also, the viability, T/C runs as follows: (second compound 0.316 µM, first compound 0.00949 µM) 112%; (second compound 0.316 µM, first compound 0.03 µM) 96.2%; (second compound 0.316 µM, first compound 0.0949 µM) 74.1%; (second compound 0.316 µM, first compound 0.3 µM) 36.5%; (second compound 0.316 µM, first compound 0.949 µM) 16.6%; (second compound 0.316 µM, first compound 3 µM) 0.73%. Also, the viability, T/C (second compound 1 µM, first compound 0.00949 µM) was 104%; the viability, T/C (second compound 1 µM, first compound 0.03 µM) is 90.2%; the viability, T/C (second compound 1 µM, first compound 0.0949 µM) was 76.5%; the viability, T/C (second compound 1 µM, first compound 0.3 µM) is 41.4%; the viability, T/C (second compound 1 µM, first compound 0.949 µM) is 17.5%; the viability, T/C (second compound 1 µM, first compound 3 µM) is 1.37%. The viability, T/C (second compound 3.16 µM, first compound 0.00949 µM) is 102%; the viability, T/C (second compound 3.16 µM, first compound 0.03 µM) was 103%; the viability, T/C (second compound 3.16 µM, first compound 0.0949 µM) was 66.6%; the viability, T/C (second compound 3.16 µM, first compound 0.3 µM) is 40.4%; the viability, T/C (second compound 3.16 µM, first compound 0.949 µM) was 21.5%; the viability, T/C (second compound 3.16 µM, first compound 3 µM) was 1.18%. The viability, T/C by setting is: (second compound 10 µM, first compound 0.00949 µM) 106%; (second compound 10 µM, first compound 0.03 µM) 88%; (second compound 10 µM, first compound 0.0949 µM) 66.5%; (second compound 10 µM, first compound 0.3 µM) 45.9%; (second compound 10 µM, first compound 0.949 µM) 23.6%; (second compound 10 µM, first compound 3 µM) 0.93%.

With `CC1(C)CCC(CN2CCN(c3ccc(C(=O)NS(=O)(=O)c4ccc(NCC5CCOCC5)c([N+](=O)[O-])c4)c(Oc4cnc5[nH]ccc5c4)c3)CC2)=C(c2ccc(Cl)cc2)C1` + NC1CC1c1ccc(-c2cccc(O)c2)cc1, the IC50 is 7410 nM under setting [1]; 7200 nM under setting [2]; 6430 nM under setting [3]; 6410 nM under setting [4]; 4920 nM under setting [5]. Moreover, the viability, T/C reads like this: under setting [6], 115%; under setting [7], 116%; (second compound 0.1 µM, first compound 0.316 µM) 125%; (second compound 0.1 µM, first compound 1 µM) 129%; (second compound 0.1 µM, first compound 3.16 µM) 117%; (second compound 0.1 µM, first compound 10 µM) 26.2%. In addition, the viability, T/C runs as follows: under setting [8], 128%; under setting [9], 130%; (second compound 0.316 µM, first compound 0.316 µM) 131%; (second compound 0.316 µM, first compound 1 µM) 129%; (second compound 0.316 µM, first compound 3.16 µM) 118%; (second compound 0.316 µM, first compound 10 µM) 23%. Further, the viability, T/C reads like this: under setting [10], 115%; under setting [11], 121%; (second compound 1 µM, first compound 0.316 µM) 111%; (second compound 1 µM, first compound 1 µM) 121%; (second compound 1 µM, first compound 3.16 µM) 102%; (second compound 1 µM, first compound 10 µM) 17.4%. The viability, T/C by setting is: under setting [12], 124%; under setting [13], 109%; (second compound 3.16 µM, first compound 0.316 µM) 106%; (second compound 3.16 µM, first compound 1 µM) 115%; (second compound 3.16 µM, first compound 3.16 µM) 107%; (second compound 3.16 µM, first compound 10 µM) 14%. Besides, the viability, T/C was 90.9% under setting [14]; 96.8% under setting [15]; 79.6% (second compound 10 µM, first compound 0.316 µM); 83.1% (second compound 10 µM, first compound 1 µM); 75.5% (second compound 10 µM, first compound 3.16 µM); 11.2% (second compound 10 µM, first compound 10 µM).

Consider `CC(C)CC(NC(=O)C(Cc1ccccc1)NC(=O)c1cnccn1)B(O)O` (centres undefined), for which the viability, T/C is 103% and 98.5% (compound 0.000316 µM); 95.8% and 43.5% (compound 0.001 µM); 13.8% and 0.88% (compound 0.00316 µM); 1.11% and 0.16% (compound 0.01 µM); 1.27% and 0.13% (compound 0.0316 µM); 0.62% and 0.21% (compound 0.1 µM). For the same compound, the IC50 (curve of compound) is 1.9 nM and 0.872 nM.

Take `CC[C@@]1(O)C(=O)OCc2c1cc1n(c2=O)Cc2cc3c(CN(C)C)c(O)ccc3nc2-1`: the viability, T/C (compound 0.000316 µM) was 95.7% and 78.2%; the viability, T/C (compound 0.001 µM) was 78.1% and 65.8%; the viability, T/C (compound 0.00316 µM) was 60.2% and 37.7%; the viability, T/C (compound 0.01 µM) is 38.6% and 29.1%; the viability, T/C (compound 0.0316 µM) was 39.1% and 27.6%; the viability, T/C (compound 0.1 µM) was 27.7% and 20%. Further, for the setting “curve of compound”, the IC50 is 5.86 nM and 1.95 nM.
